Marks after values point to notes of the source that are not given here.
What was measured:
[1] = system: ovariectomized rats; experiment: Uterine weight in ovariectomized rat post-menopausal model, 4-day oral dosing; assay type: in vivo, Sprague Dawley rats; details: for Increase in Uterine Weight (%): daily for 4 days, versus ovariectomized controls
Method: In the examples illustrating the methods, a post-menopausal model was used in which effects of different treatments upon circulating lipids were determined.
(§1) Seventy-five day old female Sprague Dawley rats (weight range of 200 to 225g) are obtained from Charles River Laboratories (Portage, MI). The animals are either bilaterally ovariectomized (OVX) or exposed to a Sham surgical procedure at Charles River Laboratories, and then shipped after one week. Upon arrival, they are housed in metal hanging cages in groups of 3 or 4 per cage and have ad libitum access to food (calcium content approximately 0.5%) and water for one week. Room temperature is maintained at 22.2° ± 1.7° C with a minimum relative humidity of 40%. The photoperiod in the room is 12 hours light and 12 hours dark.
(§2) Dosing Regimen Tissue Collection. After a one week acclimation period (therefore, two weeks post-OVX) daily dosing with test compound is initiated. 17α-ethynyl estradiol or the test compound is given orally, unless otherwise stated, as a suspension in 1% carboxymethylcellulose or dissolved in 20% cyclodextrin. Animals were dosed daily for 4 days. Following the dosing regimen, animals are weighed and anesthetized with a ketamine: Xylazine (2:1, V:V) mixture and a blood sample is collected by cardiac puncture. The animals are then sacrificed by asphyxiation with CO2, the uterus is removed through a midline incision, and a wet uterine weight is determined.

[2] = system: Uterine Eosinophil Peroxidase (EPO); experiment: Uterine Eosinophil Peroxidase (EPO) Assay in ovariectomized rats; assay type: in vivo, Sprague Dawley rats; details: for Serum Eosinophil (Vmax): oral, daily for 4 days, eosinophil peroxidase Vmax
Excerpt: as §1, §2
Uterine Eosinophil Peroxidase (EPO) Assay. Uteri are kept at 4° C until time of enzymatic analysis. The uteri are then homogenized in 50 volumes of 50 mM Tris buffer (pH - 8.0) containing 0.005% Triton X-100. Upon addition of 0.01% hydrogen peroxide and 10 mM O-phenylenediamine (final concentrations) in Tris buffer, increase in absorbance is monitored for one minute at 450 nm. The presence of eosonophils in the uterus is an indication of estrogenic activity of a compound. The maximal velocity of a 15 second interval is determined over the initial, linear portion of the reaction curve.

[3] = system: Serum cholesterol; experiment: Serum cholesterol analysis in ovariectomized rats (hyperlipidemia); assay type: in vivo, Sprague Dawley rats; details: oral; for Decrease in Cholesterol (%): daily for 4 days, serum cholesterol versus ovariectomized controls
Excerpt: as §1, §2
Cholesterol Analysis. Blood samples are allowed to clot at room temperature for 2 hours, and serum is obtained following centrifugation for 10 minutes at 3000 rpm. Serum cholesterol is determined using a Boehringer Mannheim Diagnostics high performance cholesterol assay. Briefly the cholesterol is oxidized to cholest-4-en-3-one and hydrogen peroxide. The hydrogen peroxide is then reacted with phenol and 4-aminophenazone in the presence of peroxidase to produce a p-quinone imine dye, which is read spectrophotemetrically at 500 nm. Cholesterol concentration is then calculated against a standard curve. The entire assay is automated using a Biomek Automated Workstation.

[4] = system: ovariectomized rats; experiment: Osteoporosis Test Procedure: femur density in ovariectomized rats, 35-day dosing; assay type: in vivo, Sprague Dawley rats; details: oral, in 20% hydroxypropyl β-cyclodextrin, daily for 35 days
Excerpt: Seventy-five day old female Sprague Dawley rats (weight range of 200 to 225g) are obtained from Charles River Laboratories (Portage, MI). The animals are either bilaterally ovariectomized (OVX) or exposed to a Sham surgical procedure at Charles River Laboratories, and then shipped after one week. Upon arrival, they are housed in metal hanging cages in groups of 3 or 4 per cage and have ad libitum access to food (calcium content approximately 0.5%) and water for one week. Room temperature is maintained at 22.2° ± 1.7° C with a minimum relative humidity of 40%. The photoperiod in the room is 12 hours light and 12 hours dark. Following the General Preparation Procedure, infra, the rats are treated daily for 35 days (6 rats per treatment group) and sacrificed by carbon dioxide asphyxiation on the 36th day. The 35 day time period is sufficient to allow maximal reduction in bone density, measured as described herein. At the time of sacrifice, the uteri are removed, dissected free of extraneous tissue, and the fluid contents are expelled before determination of wet weight in order to confirm estrogen deficiency associated with complete ovariectomy. […] The right femurs are excised and digitilized x-rays generated and analyzed by an image analysis program (NIH image) at the distal metaphysis. The proximal aspect of the tibiae from these animals are also scanned by quantitative computed tomography. […]

[5] = system: MCF-7 breast adenocarcinoma cells; experiment: MCF-7 Proliferation Assay (tritiated thymidine incorporation); assay type: cell-based; details: Homo sapiens, MCF7; 48 hours with drug, 4 hours tritiated thymidine pulse; read-out: IC50, inhibition of the growth of MCF-7 cells
Method: MCF-7 breast adenocarcinoma cells (ATCC HTB 22) are maintained in MEM (minimal essential medium, phenol red-free, Sigma, St. Louis, MO) supplemented with 10% fetal bovine serum (FBS) (V/V), L-glutamine (2 mM), sodium pyruvate (1 mM), HEPES {(N-[2-hydroxyethyl]piperazine-N'-[2-ethanesulfonic acid]10 mM}, non-essential amino acids and bovine insulin (1 ug/mL) (maintenance medium). Ten days prior to assay, MCF-7 cells are switched to maintenance medium supplemented with 10% dextran coated charcoal stripped fetal bovine serum (DCC-FBS) assay medium) in place of 10% FBS to deplete internal stores of steroids. MCF-7 cells are removed from maintenance flasks using cell dissociation medium (Ca^++/Mg^++ free HBSS (phenol red-free) supplemented with 10 mM HEPES and 2 mM EDTA). Cells are washed twice with assay medium and adjusted to 80,000 cells/mL. Approximately 100 µL (8,000 cells) are added to flat-bottom microculture wells (Costar 3596) and incubated at 37° C in a 5% CO2 humidified incubator for 48 hours to allow for cell adherence and equilibration after transfer. Serial dilutions of drugs or DMSO as a diluent control are prepared in assay medium and 50 µL transferred to triplicate microcultures followed by 50 µL assay medium for a final volume of 200 µL. […] Samples are counted by liquid scintillation using a Wallac BetaPlace β counter. […]

[6] = ovariectomized rats, EE2 at 0.1 mg/kg/day

SMILES	Increase in Uterine Weight (%) ([1]; dose 0.1 mg/kg)	uterine weight compared to the ovariectomized animals (in words) [1, 6]	Serum Eosinophil (Vmax) ([2]; dose 0.1 mg/kg)	eosinophil infiltration into the uterus (in words) ([2]; stromal layer of ovariectomized rat uteri)	Decrease in Cholesterol (%) ([3]; dose 0.1 mg/kg)	serum cholesterol compared to the ovariectomized animals (in words) [3, 6]	bone loss / reduction in femur density after ovariectomy (in words) [4]	Increase in Uterine Weight (%) ([1]; dose 1.0 mg/kg)	Increase in Uterine Weight (%) ([1]; dose 10.0 mg/kg)	Serum Eosinophil (Vmax) ([2]; dose 1.0 mg/kg)	Serum Eosinophil (Vmax) ([2]; dose 10.0 mg/kg)	Decrease in Cholesterol (%) ([3]; dose 1.0 mg/kg)	Decrease in Cholesterol (%) ([3]; dose 10.0 mg/kg)	IC50 [5]
C#C[C@]1(O)CC[C@H]2[C@@H]3CCc4cc(O)ccc4[C@H]3CC[C@@]21C [EE2, 17-a-ethynyl estradiol, reference compound]	182.1* %	substantially greater than the uterine weight of the ovariectomized animals	211.1*	substantial and expected increase in eosinophil infiltration	87.4* %	caused a decrease in serum cholesterol	prevented this loss	–	–	–	–	–	–	–
O=C(c1ccc(OCCN2CCCCC2)nc1)c1c(-c2ccc(O)cc2)sc2cc(O)ccc12 [Prep. 1, [2-(4-Hydroxyphenyl)-6-hydroxybenzo[b]thien-3-yl][2-[2-(1-piperidinyl)ethoxy]pyridin-5-yl]methanone]	80.3* %	–	48.0*	–	57.1* %	–	–	91.4* %	80.8* %	70.5*	55.8*	66.1* %	61.7* %	10 nM

Reference: patent publication EP0801066A1, “Heterocyclic substituted benzothiophenes and pharmaceutical compositions” (ELI LILLY AND COMPANY, priority 1996, dated 1997)
